Experimental findings from patent publication US11312721B2 (priority 2015, dated 2022) are described below.

T1 sequence (P31644 32-462): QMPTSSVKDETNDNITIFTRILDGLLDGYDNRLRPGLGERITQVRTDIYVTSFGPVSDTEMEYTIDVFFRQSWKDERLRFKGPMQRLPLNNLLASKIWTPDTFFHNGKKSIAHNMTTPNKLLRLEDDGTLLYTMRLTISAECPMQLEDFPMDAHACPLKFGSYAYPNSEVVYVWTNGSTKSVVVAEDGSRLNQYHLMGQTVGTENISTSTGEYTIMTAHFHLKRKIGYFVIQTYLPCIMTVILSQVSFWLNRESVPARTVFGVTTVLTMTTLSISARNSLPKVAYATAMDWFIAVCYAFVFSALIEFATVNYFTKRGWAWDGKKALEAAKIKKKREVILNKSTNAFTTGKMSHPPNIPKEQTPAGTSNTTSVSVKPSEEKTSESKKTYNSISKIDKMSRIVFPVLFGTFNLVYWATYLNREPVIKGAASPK
T1 sequence (P28472 26-473 partner): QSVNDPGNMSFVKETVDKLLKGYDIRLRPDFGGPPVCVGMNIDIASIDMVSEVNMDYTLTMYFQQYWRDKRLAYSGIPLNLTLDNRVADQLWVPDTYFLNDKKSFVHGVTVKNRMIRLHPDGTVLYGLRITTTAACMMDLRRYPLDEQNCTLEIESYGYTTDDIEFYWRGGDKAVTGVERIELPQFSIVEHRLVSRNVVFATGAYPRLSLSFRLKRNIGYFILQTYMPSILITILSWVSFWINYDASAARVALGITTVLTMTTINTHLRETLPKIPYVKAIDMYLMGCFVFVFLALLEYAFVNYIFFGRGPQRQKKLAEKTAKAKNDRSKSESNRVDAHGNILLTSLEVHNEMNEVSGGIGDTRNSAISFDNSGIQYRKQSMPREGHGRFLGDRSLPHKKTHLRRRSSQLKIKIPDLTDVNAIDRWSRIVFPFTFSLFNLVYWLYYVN
T1 sequence (P18507 40-475): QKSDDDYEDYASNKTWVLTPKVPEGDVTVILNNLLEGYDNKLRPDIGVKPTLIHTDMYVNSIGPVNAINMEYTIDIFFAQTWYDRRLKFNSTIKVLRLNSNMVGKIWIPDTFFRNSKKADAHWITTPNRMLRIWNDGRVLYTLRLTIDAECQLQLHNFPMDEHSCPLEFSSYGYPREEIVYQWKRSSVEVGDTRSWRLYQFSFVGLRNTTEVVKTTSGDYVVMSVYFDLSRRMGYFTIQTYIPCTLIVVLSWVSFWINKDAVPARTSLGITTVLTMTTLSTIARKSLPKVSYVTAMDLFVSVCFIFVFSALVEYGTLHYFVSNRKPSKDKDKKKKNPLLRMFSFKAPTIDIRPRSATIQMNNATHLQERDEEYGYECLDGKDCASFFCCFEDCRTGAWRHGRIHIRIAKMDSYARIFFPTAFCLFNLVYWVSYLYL
T2 sequence (P31644 32-462): as the sequence (P31644 32-462) above
T2 sequence (P47870 25-512 partner limits assumed): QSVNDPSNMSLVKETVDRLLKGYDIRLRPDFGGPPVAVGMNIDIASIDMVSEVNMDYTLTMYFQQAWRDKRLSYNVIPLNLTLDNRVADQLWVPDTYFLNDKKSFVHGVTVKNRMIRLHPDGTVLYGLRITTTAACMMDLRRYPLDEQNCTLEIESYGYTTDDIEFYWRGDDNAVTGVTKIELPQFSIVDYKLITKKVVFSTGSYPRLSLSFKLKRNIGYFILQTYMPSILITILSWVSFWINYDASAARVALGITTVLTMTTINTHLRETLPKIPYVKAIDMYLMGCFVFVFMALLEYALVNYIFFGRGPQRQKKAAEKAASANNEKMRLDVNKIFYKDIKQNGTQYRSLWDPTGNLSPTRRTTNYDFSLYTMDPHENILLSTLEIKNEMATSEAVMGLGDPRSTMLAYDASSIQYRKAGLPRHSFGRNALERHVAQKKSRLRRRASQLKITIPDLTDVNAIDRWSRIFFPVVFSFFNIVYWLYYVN
T2 sequence (P18507 40-475): as the sequence (P18507 40-475) above

One experiment has as its target T1, α5β3γ2 GABAA receptors (Ltk cells) (Homo sapiens, UniProt P18507+P31644).
T1 construct: membranes
In words: Binding activity on GABAAR: inhibition of [3H]Ro15-1788 binding.
Conditions: not given
Here is the method: Tissue culture and Membrane Preparation: The binding was performed on Ltk cells stably expressing GABAA receptors: α1β1γ2, α2β3γ2, α3β3γ2 and α5β3γ2 (provided by Merck Co., NJ, USA). Cells were seeded in 100 mm culture plates in DMEM/F12 medium containing 10% serum and antibiotics in 5% CO2 and allowed to grow for 1-2 days. GABAAR expression was then induced by dexamethasone as follows: 0.5 μM for 1 day for α5 containing and 2 μM for 3 days for α1, α2 and α3 containing GABAARs. After induction, cells were collected by scraping into Dulbecco's Phosphate buffered saline (DPBS, pH 7.4, Invitrogen, Carlsbad, Calif., USA) and centrifuged at 150×g for 10 min. The pellet was washed twice by re-suspension and centrifugation. The cell pellets from at least 5 different preps were combined, suspended in the binding assay buffer (50 mM KH2PO4; 1 mM EDTA; 0.2 M KCl, pH 7.4) and membranes prepared by sonication (3-5 times, 30 sec) using Branson Sonifier 150 (G. Heinmann, Germany). Protein content was determined using BCA assay (Bio-Rad Labs, Reinach, Switzerland) with Bovine Serum Albumin (Sigma Aldrich, St. Louis, Mo., USA) as the standard. Aliquots were prepared and stored at −20° C. for further use in binding assays.
Ligand Binding: Saturation binding curves were obtained by incubating membranes with increasing concentrations (0.01-8 nM) of [^3H]Ro15-1788 (Flumazepil, 75-85 Ci/mmol, PerkinElmer, MA, USA), with nonspecific binding measured in the presence of 10 μM diazepam.
All binding assays were performed for 1 h at 4° C. in assay buffer. The total assay volume was 0.5 ml containing 0.2 mg/ml protein for α5 and 0.4 mg/ml for α1, α2, and α3 containing GABAAR membranes. Incubations were terminated by filtration through GF/B filters using a 24-Cell Harvestor (Brandel, Gaithersburg, Md., USA) followed by 3 washes with ice-cold assay buffer. Filters were transferred to scintillation vials, 5 ml scintillation liquid added, vortex-mixed and kept in dark. Next day, radioactivity was obtained using a scintillation counter (Beckman Coulter, Brea, Calif., USA). All assays were performed in triplicate.
Data Analyses: Saturation and inhibition curves were obtained using GraphPad Prism software (GraphPad Software, Inc., CA, USA).
The Ki is the dissociation constant of the complex between target and ligand, obtained from inhibition or displacement. A lower Ki goes with tighter binding. As for `CCOC(=O)c1ncn2c1Cc1c(Cc3ccc(F)cc3)nnn1-c1cc(F)ccc1-2` [Compound 46], the Ki was less than 99 nM. `CCOC(=O)c1ncn2c1Cc1c(Cc3ccccc3Cl)nnn1-c1cc(C)ccc1-2` [Compound 54] gave an inhibition constant Ki of less than 99 nM. Take `CCOC(=O)c1ncn2c1Cc1c(Cc3ccccc3)nnn1-c1cc(C)ccc1-2` [Compound 101]: the Ki was less than 99 nM. Molecule `CCOC(=O)c1ncn2c1Cc1c(C)nnn1-c1cc(C)ccc1-2` [Compound 102] showed a Ki of less than 99 nM.

Molecule `Cc1cccc(C)c1OCc1nnc2n1Cc1c(-c3noc(C(C)C)n3)ncn1-c1ccc(F)cc1-2` [Compound 190] yielded a Ki of less than 99 nM. The same measure, in the same setting: for `N#Cc1ncn2c1Cn1c(COc3ccccc3)nnc1-c1cc(Cl)ccc1-2` [Compound 197] the value was less than 99 nM; for `COCc1nnc2n1Cc1c(-c3nc(C(C)C)no3)ncn1-c1ccc(Cl)cc1-2` [Compound 206], less than 99 nM; for `COc1ccc2c(c1)-n1nnc(Cc3ccccc3Cl)c1Cc1c(C#N)ncn1-2` [Compound 208], less than 99 nM.

The molecule `COc1ccc2c(c1)-n1nnc(Cc3cccc(Cl)c3)c1Cc1c(C#N)ncn1-2` [Compound 209] showed a Ki of less than 99 nM. The same measure, in the same setting: to `CCOCc1nnc2n1Cc1c(Br)ncn1-c1ccc(Cl)cc1-2` [Compound 216] belongs less than 99 nM; to `COCc1nnc2n1Cc1c(Br)ncn1-c1ccc(Cl)cc1-2` [Compound 217], less than 99 nM; to `C#Cc1ncn2c1Cc1c(C(=O)c3ccc(F)cc3)nnn1-c1cc(OC)ccc1-2` [Compound 218], less than 99 nM. The same measure, in the same setting: to `COc1ccc2c(c1)-n1nnc(COc3ccccc3F)c1Cc1c(C#N)ncn1-2` [Compound 223] belongs less than 99 nM; to `N#Cc1ncn2c1Cc1c(COc3cccc(F)c3)nnn1-c1cc(Cl)ccc1-2` [Compound 227], less than 99 nM; to `CC(C)c1nc(-c2ncn3c2Cc2c(C(=O)c4ccc(F)cc4)nnn2-c2ccc(F)cc2-3)no1` [Compound 230], less than 99 nM. `COc1ccc2c(c1)-c1nnc(COc3ccccc3)n1Cc1c(Br)ncn1-2` [Compound 232] displayed a Ki of less than 99 nM.

On to `COCc1nnc2n1Cc1c(-c3cc(C)no3)ncn1-c1ccc(Cl)cc1-2` [Compound 233], for which the Ki was less than 99 nM. `C#CCNC(=O)c1ncn2c1Cn1c(COC)nnc1-c1cc(Cl)ccc1-2` [Compound 234] showed an inhibition constant Ki greater than 1000 nM. The same measure, in the same setting: to `COc1ccc2c(c1)-c1nnc(COc3cccnc3)n1Cc1c(Br)ncn1-2` [Compound 235] belongs less than 99 nM. Molecule `C#Cc1ncn2c1Cn1c(COc3ccccc3)nnc1-c1cc(OC)ccc1-2` [Compound 236] yielded a Ki of less than 99 nM. `C#Cc1ncn2c1Cn1c(COc3cccnc3)nnc1-c1cc(OC)ccc1-2` [Compound 241] showed a Ki of less than 99 nM. Same read-out and setting: for `COCc1nnc2n1Cc1c(C3=NC(c4ccccc4)CO3)ncn1-c1ccc(Cl)cc1-2` (stereo not drawn) [Compound 242] the value was less than 99 nM; for `COCc1nnc2n1Cc1c(-c3nc(C)co3)ncn1-c1ccc(Cl)cc1-2` [Compound 244], less than 99 nM.

`COCc1nnc2n1Cc1c(-c3nc(-c4ccccc4)co3)ncn1-c1ccc(Cl)cc1-2` [Compound 245] had a Ki of less than 99 nM. Same read-out and setting: for `COc1ccc2c(c1)-n1nncc1Cc1c(-c3nc(C)no3)ncn1-2` [Compound 258] the value was less than 99 nM; for `CCOCc1nnc2n1Cc1c(C3=NC(C)CO3)ncn1-c1ccc(Cl)cc1-2` (stereo not drawn) [Compound 259], less than 99 nM; for `CCOCc1nnc2n1Cc1c(C3=NC(c4ccccc4)CO3)ncn1-c1ccc(Cl)cc1-2` (stereo not drawn) [Compound 260], less than 99 nM.

Molecule `C#Cc1ncn2c1Cn1c(COCC)nnc1-c1cc(Cl)ccc1-2` [Compound 261] gave an inhibitory constant (Ki) of less than 99 nM. Consider `COCc1nnc2n1Cc1c(C3=N[C@H](c4ccccc4)CO3)ncn1-c1ccc(Cl)cc1-2` [Compound 263], for which the Ki is less than 99 nM.

The molecule `CC(C)OCc1nnc2n1Cc1c(C3=N[C@H](c4ccccc4)CO3)ncn1-c1ccc(Cl)cc1-2` [Compound 268] showed a Ki of less than 99 nM.

With `CC(C)OCc1nnc2n1Cc1c(C3=N[C@@H](c4ccccc4)CO3)ncn1-c1ccc(Cl)cc1-2` [Compound 270], the Ki was less than 99 nM.

For the molecule `CCOCc1nnc2n1Cc1c(C3=N[C@@H](c4ccccc4)CO3)ncn1-c1ccc(Cl)cc1-2` [Compound 275], the inhibition constant Ki was less than 99 nM. The molecule `CC(C)OCc1nnc2n1Cc1c(-c3nc(-c4ccccc4)co3)ncn1-c1ccc(Cl)cc1-2` [Compound 276] had a Ki of less than 99 nM. Same read-out and setting: for `COc1ccc2c(c1)-n1nnc(C)c1Cc1c(-c3nc(C(C)C)no3)ncn1-2` [Compound 277] the value was less than 99 nM; for `C#Cc1ccc2c(c1)-c1nnc(COC)n1Cc1c(C3=N[C@H](CC(C)C)CO3)ncn1-2` [Compound 280], less than 99 nM; for `COCc1nnc2n1Cc1c(C3=N[C@H](C)CO3)ncn1-c1ccc(Cl)cc1-2` [Compound 282], less than 99 nM.

Take `COCc1nnc2n1Cc1c(C#Cc3ccccc3)ncn1-c1ccc(Cl)cc1-2` [Compound 285]: the Ki is less than 99 nM. Still for that read-out and setting: for `C#Cc1ncn2c1Cn1c(COC(C)C)nnc1-c1cc(Cl)ccc1-2` [Compound 288] the value was less than 99 nM; for `COc1ccc2c(c1)-n1nncc1Cc1c(C3=N[C@@H](c4ccccc4)CO3)ncn1-2` [Compound 289], less than 99 nM.

Regarding `COc1ccc2c(c1)-n1nncc1Cc1c(C3=N[C@H](C)CO3)ncn1-2` [Compound 291], the inhibition constant (Ki) was less than 99 nM. Same read-out and setting: to `COCc1nnc2n1Cc1c(C3=NC[C@@H](C)O3)ncn1-c1ccc(Cl)cc1-2` [Compound 294] belongs less than 99 nM; to `COCc1nnc2n1Cc1c(C3=NC[C@H](C)O3)ncn1-c1ccc(Cl)cc1-2` [Compound 295], less than 99 nM; to `COCc1nnc2n1Cc1c(-c3ncc(C)o3)ncn1-c1ccc(Cl)cc1-2` [Compound 296], less than 99 nM.

In the case of `C#Cc1ccc2c(c1)-c1nnc(COC)n1Cc1c(C3=N[C@@H](c4ccccc4)CO3)ncn1-2` [Compound 301], the Ki is less than 99 nM. Molecule `C#Cc1ccc2c(c1)-c1nnc(COC)n1Cc1c(-c3nc(-c4ccccc4)co3)ncn1-2` [Compound 302] displayed a Ki of less than 99 nM. On the same count and under the same terms, to `FC(F)(F)COCc1nnc2n1Cc1c(C3=N[C@@H](c4ccccc4)CO3)ncn1-c1ccc(Cl)cc1-2` [Compound 304] belongs less than 99 nM.

The next experiment concerns the target T2, GABAA receptors (α5β2γ2) (Homo sapiens, UniProt P18507+P31644).
T2 construct: expressed in transfected cells
In words: Positive allosteric modulator activity: potentiation of EC20 GABA current in oocytes. Format: cell-based. As to conditions: read-out: GABA α5 functional potentiation. Here is the method:
On day 1, 1 ng/32 nL of GABAA α5β2γ2 cDNA was injected into one oocyte. Test starts on day 2. The cDNA injected to the oocytes was a mix of alpha, beta and gamma, their ratio is 1:1:10 (by weight) and the total weight of the mixed 3 subunits to be injected in one oocyte was 1 ng in 32 nl volume. The injected oocytes can also be tested on day 3. In such case, the cDNA amount injected to the oocytes should be reduced by 20%.
1). 8 oocytes were placed in 8 chambers of OpusXpress and superfused with Modified Barth's Saline (MBS) at 3 mL/min. Glass electrodes back-filled with 3M KCl (0.5-3 megaohms) were used.
1). Repeat the above steps 1), 2) and 3) in the control test.
2). […] Divide Itest by IGABA to obtain potentiation (%).
3). Discard all tested oocytes, new oocytes were used and the above steps 1) and 2) were repeated to test second concentration of the same compound. Each oocyte was used for only one concentration test for a single test compound. The steps were repeated for other test compounds.
On to `CCOC(=O)c1ncn2c1Cc1c(C)nnn1-c1cc(OC)ccc1-2` [Compound 1], for which the activation at 0.1 µM was in the range of 20 to 49%. Same read-out and setting: for `CCOC(=O)c1ncn2c1Cc1c(C)nnn1-c1cc(F)ccc1-2` [Compound 2] the value was 20 to 49%. Same read-out and setting: to `CCOC(=O)c1ncn2c1Cc1c(COc3ccccc3)nnn1-c1cc(OC)ccc1-2` [Compound 9] belongs 20 to 49%. Turning to `CCOC(=O)c1ncn2c1Cc1c(COc3cccc(OC)c3)nnn1-c1cc(OC)ccc1-2` [Compound 11], the activation at 0.1 µM was 20 to 49%. The same measure, in the same setting: for `CCOC(=O)c1ncn2c1Cc1c(Cc3ccc(Cl)cc3)nnn1-c1cc(F)ccc1-2` [Compound 45] the value was 20 to 49%; for `CCOC(=O)c1ncn2c1Cc1c(CN3CCCC3)nnn1-c1cc(OC)ccc1-2` [Compound 48], 20 to 49%.

Consider `CCOC(=O)c1ncn2c1Cn1c(COc3ccccc3)nnc1-c1cc(OC)ccc1-2` [Compound 55], for which the activation at 0.1 µM was 20 to 49%. In the case of `Cc1noc(-c2ncn3c2Cc2c(Cc4ccccc4)nnn2-c2cc(F)ccc2-3)n1` [Compound 109], the activation at 0.1 µM was 20 to 49%. The same measure, in the same setting: to `Cc1noc(-c2ncn3c2Cc2c(C)nnn2-c2cc(F)ccc2-3)n1` [Compound 110] belongs 20 to 49%; to `CCOC(=O)c1ncn2c1Cc1c(Cc3cccnc3)nnn1-c1cc(C)ccc1-2` [Compound 111], 20 to 49%; to `Cc1nnn2c1Cc1c(C(=O)OCC(C)(C)C)ncn1-c1ccc(F)cc1-2` [Compound 113], greater than 50%.
